Results on two molecules are retold here after patent US20050152845A1, “Amorphous fluticasone 2-furoate, pharmaceutical compositions thereof and its conversion to the crystalline unsolvated form” (priority 2002, published 2005).

For one series, the system named is lung eosinophilia. Kind of series: Ovalbumin sensitised Brown Norway rat eosinophilia model. It counts as in vivo. The note with it: single dose of 30 μg, intra-tracheal suspension in saline 30 min prior to ovalbumin challenge. The method, then: Pharmacological activity in vivo was assessed in an ovalbumin sensitised Brown Norway rat eosinophilia model. This model is designed to mimic allergen induced lung eosinophilia, a major component of lung inflammation in asthma.

A further series deals with thymus weight. Nature of the series: Rat model of thymus involution. The format is in vivo. The note with it: 3 daily IT doses of 100 μg.
The nature of series [1]: Pharmacokinetics after intra-tracheal dry powder dosing in the pig. It counts as in vivo. The note with it: 1 mg intra-tracheal, LLOQ 10 pg/mL compound (I), 20pg/mL fluticasone propionate. The method, then:
Serial blood samples were taken for up to 8 h following dosing.

Series [2] addresses T1, glucocorticoid receptor (GR) (Homo sapiens, UniProt P04150).
T1 construct: two reporter plasmids have been generated and introduced separately into A549 human lung epithelial cells by transfection; endogenous in cells; host or cells: A549 human lung epithelial cells stably carrying a renilla luciferase reporter with 3 copies of the consensus GRE
T1 sequence (P04150 1-777): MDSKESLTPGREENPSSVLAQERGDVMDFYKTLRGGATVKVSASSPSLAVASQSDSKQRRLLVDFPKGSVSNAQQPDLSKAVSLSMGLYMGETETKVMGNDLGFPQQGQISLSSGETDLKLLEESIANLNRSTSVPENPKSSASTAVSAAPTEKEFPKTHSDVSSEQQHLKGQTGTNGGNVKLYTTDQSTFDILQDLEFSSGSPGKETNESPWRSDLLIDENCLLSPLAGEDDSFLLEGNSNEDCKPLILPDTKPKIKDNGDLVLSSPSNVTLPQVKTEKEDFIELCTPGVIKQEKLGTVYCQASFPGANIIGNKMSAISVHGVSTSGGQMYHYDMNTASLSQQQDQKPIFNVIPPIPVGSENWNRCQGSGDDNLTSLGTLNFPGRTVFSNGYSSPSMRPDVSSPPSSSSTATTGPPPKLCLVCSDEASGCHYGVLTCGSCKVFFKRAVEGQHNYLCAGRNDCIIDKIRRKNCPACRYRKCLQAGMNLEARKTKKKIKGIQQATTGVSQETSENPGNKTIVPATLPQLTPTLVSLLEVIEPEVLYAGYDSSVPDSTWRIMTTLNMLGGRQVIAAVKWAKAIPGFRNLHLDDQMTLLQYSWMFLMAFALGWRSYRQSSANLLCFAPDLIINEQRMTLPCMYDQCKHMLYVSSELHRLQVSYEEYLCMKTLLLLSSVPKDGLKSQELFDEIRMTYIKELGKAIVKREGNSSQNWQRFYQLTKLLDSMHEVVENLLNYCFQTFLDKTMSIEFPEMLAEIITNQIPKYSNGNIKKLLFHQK
Nature of the series: Transactivation reporter assay (renilla luciferase, glucocorticoid response element) in A549 cells. The format is cell-based. The note with it: 1 h compound then 0.5ng/ml TNFα 15 hours, read-out: Transactivation (GR) ED50. The text has this: (§1) The glucocorticoid receptor (GR) can function in at least two distinct mechanisms, by upregulating gene expression through the direct binding of GR to specific sequences in gene promoters, and by downregulating gene expression that is being driven by other transcription factors (such as NFκB or AP-1) through their direct interaction with GR.
In a variant of the above method, to monitor these functions, two reporter plasmids have been generated and introduced separately into A549 human lung epithelial cells by transfection. The first cell line contains the firefly luciferase reporter gene under the control of a synthetic promoter that specifically responds to activation of the transcription factor NFκB when stimulated with TNFα. The second cell line contains the renilla luciferase reporter gene under the control of a synthetic promotor that comprises 3 copies of the consensus glucocorticoid response element, and which responds to direct stimulation by glucocorticoids. […] After incubation for 1 h 0.5ng/ml TNFα (R&D Systems) was added and after a further 15 hours at 37° C., the levels of firefly and renilla luciferase were measured using the Packard Firelite kit following the manufacturers' directions. Dose response curves were constructed from which EC50 values were determined.
Background: In a reporter assay the amount or activity of a reporter protein is the signal.

The next series has as its system NFκB. Kind of series: Transrepression reporter assay (firefly luciferase, NFκB promoter, TNFα stimulated) in A549 cells. It counts as cell-based. Particulars: Homo sapiens, 1 h compound then 0.5ng/ml TNFα 15 hours, read-out: Transrepression (NFκB) ED50.
Excerpt: as §1
The first cell line contains the firefly luciferase reporter gene under the control of a synthetic promoter that specifically responds to activation of the transcription factor NFκB when stimulated with TNFα. The second cell line contains the renilla luciferase reporter gene under the control of a synthetic promotor that comprises 3 copies of the consensus glucocorticoid response element, and which responds to direct stimulation by glucocorticoids. Simultaneous measurement of transactivation and transrepression was conducted by mixing the two cell lines in a 1:1 ratio in 96 well plate (40,000 cells per well) and growing overnight at 37° C. Test compounds were dissolved in DMSO, and added to the cells at a final DMSO concentration of 0.7%. […] Dose response curves were constructed from which EC50 values were determined.

For the next series, the target named is T2, glucocorticoid receptor (Homo sapiens, UniProt P04150).
T2 construct: endogenous in cells
T2 sequence (P04150 1-777): T1 sequence (P04150 1-777)
Nature of the series: In vitro functional glucocorticoid assays, metabolite versus parent. The format is cell-based. As for the experimental part:
Compound (I) undergoes highly efficient hepatic metabolism to yield the 17-β carboxylic acid (X) as the sole major metabolite in rat and human in vitro systems.
The functional assay was based on that described by K. P. Ray et al., Biochem J. (1997), 328, 707-715. A549 cells stably transfected with a reporter gene containing the NF-κB responsive elements from the ELAM gene promoter coupled to sPAP (secreted alkaline phosphatase) were treated with test compounds at appropriate doses for 1 hour at 37° C. The cells were then stimulated with tumour necrosis factor (TNF, 10ng/ml) for 16 hours, at which time the amount of alkaline phosphatase produced is measured by a standard colourimetric assay. Dose response curves were constructed from which EC50 values were estimated.
In a variant of the above method, to monitor these functions, two reporter plasmids have been generated and introduced separately into A549 human lung epithelial cells by transfection. […] After incubation for 1 h 0.5ng/ml TNFα (R&D Systems) was added and after a further 15 hours at 37° C., the levels of firefly and renilla luciferase were measured using the Packard Firelite kit following the manufacturers' directions. Dose response curves were constructed from which EC50 values were determined.

With `CCC(=O)O[C@]1(C(=O)SCF)[C@H](C)C[C@H]2[C@@H]3C[C@H](F)C4=CC(=O)C=C[C@]4(C)[C@@]3(F)[C@@H](O)C[C@@]21C` [Fluticasone propionate, 6α, 9α-Difluoro-17α-(1-oxopropoxy)-11β-hydroxy-16α-methyl-3-oxo-androsta-1,4-diene-17β-carbothioic acid S-fluoromethyl ester, reference compound], the “inhibition of lung eosinophilia” value in the series on lung eosinophilia is 41%. The “reduction of thymus weight” value with thymus weight worked out at 78%. In series [1], the “time after dosing up to which quantifiable in plasma” value is “up to 8 hours”.

With `C[C@@H]1CCC2C3C[C@H](F)C4=CC(=O)C=C[C@]4(C)[C@@]3(F)[C@@H](O)C[C@]2(C)[C@@]1(OC(=O)c1ccco1)C(=O)O` (stereo partly drawn) [Metabolite (X)], the EC50 was more than 250 nM in series [2] and more than 1000 nM with NFκB. The “fold less active than the parent compound” value on glucocorticoid receptor is given as more than 1000 fold.
